Reference: article PMC3169398 (Acta Crystallographica Section F: Structural Biology and …, 2011)

Assays:
[1] = target: T1, Bp PPAT (tagged, MAHHHHHHMGTLEAQTQGPGS-ORF) (Burkholderia pseudomallei, UniProt Q3JW91); settings: pH 4.6, 0.2 M ammonium sulfate, PEG 2000 MME; 1 mM coenzyme A added; active site; moiety of hydrolysed or disordered coenzyme A; weak density, adenine possibly partially occupied; may be part of disor
T1 construct: gene coaD

[2] = target: T2, Bp PPAT (tagless, GPGS-ORF) (Burkholderia pseudomallei, UniProt Q3JW91); settings: 2.0 M ammonium sulfate; 10 mM ATP added to protein; ligand carried over from E. coli host; active site; occupancy 0.5
T2 construct: gene coaD
T2 sequence (Q3JW91 whole entry, looked up): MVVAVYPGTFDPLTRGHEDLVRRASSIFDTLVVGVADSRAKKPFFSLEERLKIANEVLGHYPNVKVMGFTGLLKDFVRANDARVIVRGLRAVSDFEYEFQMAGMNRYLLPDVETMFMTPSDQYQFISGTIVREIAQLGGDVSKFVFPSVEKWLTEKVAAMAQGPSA

T1 sequence (Q3JW91 whole entry, looked up): as above

Compound | X-ray crystal structure, 1.6 Å [1] | X-ray crystal structure, 2.1 Å [2]
Nc1ncnc2[nH]cnc12 [adenine] | We noted modest omit electron density for the adenine ring, which was also modelled | 
CC(C)(COP(=O)(O)OP(=O)(O)OC[C@H]1O[C@@H](n2cnc3c(N)ncnc32)[C@H](O)[C@@H]1O)[C@@H](O)C(=O)NCCC(=O)NCCS [dephospho-coenzyme A] |  | clear evidence but weak electron density for dephospho-coenzyme A in the active site
